# Results as given in patent US6706763B1, “O-anisamide derivatives” (Kyorin Pharmaceutical Co., Ltd., priority 1999, dated 2004).
# pEC50: −log10 of the molar value.
# Biological target: T1, ligand binding domain of human type PPARα fused with DNA-binding domain of GAL4 (Homo sapiens, UniProt Q07869)
# T1 construct: expressed in transfected cells; host or cells: CHO cells
# T1 sequence (Q07869 239-466 limits assumed): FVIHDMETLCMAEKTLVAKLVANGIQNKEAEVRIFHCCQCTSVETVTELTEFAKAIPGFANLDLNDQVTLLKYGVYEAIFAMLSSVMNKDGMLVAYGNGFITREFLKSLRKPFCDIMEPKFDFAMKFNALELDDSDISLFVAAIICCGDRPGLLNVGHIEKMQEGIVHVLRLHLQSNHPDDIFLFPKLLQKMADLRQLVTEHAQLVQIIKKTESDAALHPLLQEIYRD
# Test: Test of transcriptional activation on peroxisome proliferator-activated receptor α (GAL4 chimera luciferase reporter in CHO cells)
# Assay type: cell-based
# Details: CHO cells cotransfected with GAL4-human PPARα LBD receptor plasmid and luciferase reporter; luciferase activity after 24 hours
# From the text: Test of transcriptional activation on peroxisome proliferator-activated receptors α and γ
# To CHO cells cultured in a Ham's F-12 medium with 10% fetal calf serum, receptor plasmid that expresses fused protein of DNA-binding domain of GAL4 being transcription factor of yeast with ligand binding domain of human type PPARs α and γ (Biochemistry, 1993, 32, 5598), firefly luciferase reporter plasmid (Promega Corp.) that is activated by GAL4 and sea shiitake mushroom luciferase plasmid (Promega Corp.) for internal standard were cotransfected with lipofectamine. Thereafter, testing compound dissolved into dimethyl sulfoxide (DMSO) (final concentration of DMSO 0.1%) and control drug were adjusted with Ham's F-12 medium containing 10% defatted fetal calf serum to culture. After 24 hours, the luciferase activity was measured.
row,SMILES,pEC50
1,"CCCCC/C=C\C/C=C\C=C\[C@@H](O)C/C=C\CCCC(=O)O [(8S)-HETE, 8-hydroxyeicosatetraenoic acid, reference compound]",5.89
2,"COc1ccc(CC(SC)C(N)=O)cc1C(=O)NCc1ccc(C(F)(F)F)cc1 (stereo not shown) [Example 3, 5-[2-Carbamoyl-2-(methylthio)ethyl]-2-methoxy-N-(4-trifluoromethylbenzyl)benzamide]",5.68
3,"COc1ccc(CC(SC)C(=O)O)cc1C(=O)NCc1ccc(C(F)(F)F)cc1 (stereo not shown) [Example 7, 3-[4-Methoxy-3-[N-(4-trifluoromethylbenzyl)]carbamoylphenyl]-2-(methylthio)propionic acid]",5.92

# System: not given
# Test: not given
# Details: not given
row,SMILES,melting point [°C]
1,"COc1ccc(C(=O)O)cc1C(=O)NCc1ccc(C(F)(F)F)cc1 [Example 1, 4-Methoxy-3-[N-(4-trifluoromethylbenzyl)carbamoyl]benzoic acid]",235.5 to 236.5
2,"COc1ccc(CC(=O)O)cc1C(=O)NCc1ccc(C(F)(F)F)cc1 [Example 2, 4-Methoxy-3-[N-(4-trifluoromethylbenzyl)]carbamoylphenylacetic acid]",167 to 168
3,"COc1ccc(CC(SC)C(N)=O)cc1C(=O)NCc1ccc(C(F)(F)F)cc1 (stereo not shown) [Example 3, 5-[2-Carbamoyl-2-(methylthio)ethyl]-2-methoxy-N-(4-trifluoromethylbenzyl)benzamide]",152.5 to 153.5
4,"COc1ccc(CC(C(N)=O)[S+](C)[O-])cc1C(=O)NCc1ccc(C(F)(F)F)cc1 (stereo not shown) [Example 4, 5-[2-Carbamoyl-2-(methylsulfinyl)ethyl]-2-methoxy-N-(4-trifluoromethylbenzyl)benzamide]",170 to 171
5,"COc1ccc(CC(C(N)=O)S(C)(=O)=O)cc1C(=O)NCc1ccc(C(F)(F)F)cc1 (stereo not shown) [Example 5, 5-[2-Carbamoyl-2-(methylsulfonyl)ethyl]-2-methoxy-N-(4-trifluoromethylbenzyl)benzamide]",219 to 220
6,"COc1ccc(CC(S)C(N)=O)cc1C(=O)NCc1ccc(C(F)(F)F)cc1 (stereo not shown) [Example 6, 5-(2-Carbamoyl-2-mercaptoethyl)-2-methoxy-N-(4-trifluoromethylbenzyl)benzamide]",159 to 161
7,"COc1ccc(CC(C(=O)O)S(C)(=O)=O)cc1C(=O)NCc1ccc(C(F)(F)F)cc1 (stereo not shown) [Example 9, 3-[4-Methoxy-3-[N-(4-trifluoromethylbenzyl)]carbamoylphenyl]-2-(methylsulfonyl)propionic acid]",158 to 159
